Results taken from PubChem BioAssay (NCI).
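Compound exposure: 48 hours, 5 concentrations, 96-well plates. GI50 is the concentration that inhibits growth by half. TGI: total growth inhibition.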

Key:
Assay in all cases: NCI tumour cell line growth inhibition, 48 h
SK-MEL-5 melanoma = test system: SK-MEL-5 melanoma
OVCAR-4 ovarian = test system: OVCAR-4 ovarian
T-47D breast = test system: T-47D breast
OVCAR-3 ovarian = test system: OVCAR-3 ovarian
RXF 393 renal = test system: RXF 393 renal
NCI/ADR-RES ovarian = test system: NCI/ADR-RES ovarian
MOLT-4 leukemia = test system: MOLT-4 leukemia
K-562 leukemia = test system: K-562 leukemia
CCRF-CEM leukemia = test system: CCRF-CEM leukemia
TK-10 renal = test system: TK-10 renal

Compound | GI50 (SK-MEL-5 melanoma) | TGI (SK-MEL-5 melanoma) | GI50 (OVCAR-4 ovarian) | TGI (OVCAR-4 ovarian) | GI50 (T-47D breast) | TGI (T-47D breast) | GI50 (OVCAR-3 ovarian) | TGI (OVCAR-3 ovarian) | GI50 (RXF 393 renal) | TGI (RXF 393 renal) | GI50 (NCI/ADR-RES ovarian) | TGI (NCI/ADR-RES ovarian) | GI50 (MOLT-4 leukemia) | TGI (MOLT-4 leukemia) | GI50 (K-562 leukemia) | TGI (K-562 leukemia) | GI50 (CCRF-CEM leukemia) | TGI (CCRF-CEM leukemia) | GI50 (TK-10 renal) | TGI (TK-10 renal)
O=C1c2cccc3cccc(c23)C(=O)N1CC#Cc1ccc2c3c(cccc13)C(=O)N(CCN1CCNCC1)C2=O | 18.3 µM | 36.4 µM | 1.93 µM | 3.82 µM | 2.03 µM | 5.11 µM | 3.6 µM | 12.4 µM | 2.7 µM | 10.4 µM | > 100 µM | > 100 µM | 2.17 µM | 5.07 µM | 1.16 µM | 2.75 µM | 2.01 µM | 5.06 µM | 2.61 µM | 7.54 µM
Cc1cc(Br)c2nsnc2c1[N+](=O)[O-] | 3.88 µM | 13.8 µM | 4.73 µM | 17.3 µM | 0.921 µM | 5.96 µM | 1.69 µM | 3.08 µM | 6.66 µM | 18.5 µM | 4.54 µM | 20.7 µM | 1.64 µM | 4.93 µM | 0.968 µM |  | 2.16 µM | 5.44 µM | 3.72 µM | 12.4 µM
CC(=O)Nc1c(I)c(C(=O)O)c(I)c(N(C)C(C)=O)c1I | > 100 µM | > 100 µM | > 100 µM | > 100 µM | > 100 µM | > 100 µM | > 100 µM | > 100 µM | > 100 µM | > 100 µM | > 100 µM | > 100 µM | > 100 µM | > 100 µM | > 100 µM | > 100 µM | > 100 µM | > 100 µM | > 100 µM | > 100 µM
C[C@@H](Oc1cc(-c2cnn(C3CC4(CNC4)C3)c2)cnc1N)c1c(Cl)ccc(F)c1Cl | 3.92 µM | 12.2 µM | 9.15 µM | 22.7 µM | 3.89 µM | 16.7 µM | 9.94 µM | 22.1 µM | 3.39 µM | 12.7 µM | 14.9 µM | 31 µM | 1.03 µM | 7.27 µM | 0.349 µM | 5.43 µM | 0.681 µM | 6.97 µM | 10.3 µM | 22.5 µM
CCc1ccc(Oc2nccc(-c3c(-c4ccc(F)cc4)ncn3C3CCNCC3)n2)cc1 | 4.22 µM | 7.71 µM | 5.02 µM | 13 µM | 4.3 µM | 11.6 µM | 10.5 µM | 14.5 µM | 3.99 µM | 7.49 µM | 4.69 µM | 12.9 µM | 7.15 µM | 15.8 µM | 4.64 µM | 10.9 µM | 6.77 µM | 17.8 µM | 4.24 µM | 7.93 µM
Oc1[nH]c2ccc(Cl)cc2c1/C=c1/ccc2c(c1)N=C(c1ccc(C(F)(F)F)cc1)N=2 | 1.7 µM | 3.31 µM | 2.73 µM | 11.4 µM | 2.86 µM | 9.23 µM | 1.56 µM | 3.21 µM | 1.88 µM | 3.76 µM | 2.6 µM | 7.77 µM | 2.41 µM | 6.19 µM | 2.6 µM | 7.73 µM | 2.43 µM | 6.96 µM | 3.62 µM | 9.75 µM
O=S(=O)(CC(O)C(Cl)(Cl)Cl)NNc1ccccc1 (centres undefined) |  | > 100 µM |  | > 100 µM |  | > 100 µM |  | > 100 µM |  | > 100 µM |  | > 100 µM |  | > 100 µM |  | > 100 µM |  | > 100 µM |  | > 100 µM
O=NNc1ccc(Sc2ccc3ccccc3c2)cn1 |  | 39.1 µM |  | > 100 µM |  | 77.9 µM |  | > 100 µM |  | 4.12 µM |  | 89.4 µM |  | > 100 µM |  | > 100 µM |  | 59.6 µM |  | > 100 µM
COc1ccc(C2=NNC(c3cc(Cc4ccc(O)c(C5CC(c6ccc(OC)cc6)=NN5)c4)ccc3O)C2)cc1 (centres undefined) | 1.76 µM | 6.4 µM | 5.36 µM | > 100 µM | 4.61 µM | > 100 µM | 18.8 µM | > 100 µM | 4.18 µM | 48.3 µM | 7.39 µM | > 100 µM | 17.8 µM | > 100 µM | 7.74 µM | > 100 µM | 3.85 µM | > 100 µM | 19.6 µM | > 100 µM
COc1ccc(/C=C/c2ccnc3ccccc23)cc1 |  | 27.5 µM |  | 19.9 µM |  | 37.4 µM |  | 26.3 µM |  | 35.4 µM |  | 33.6 µM |  | 34 µM |  | 23.2 µM |  | 28.7 µM |  | 31.7 µM
O=[N+]([O-])c1ccc(Oc2cccc(C(F)(F)F)c2)c([N+](=O)[O-])c1 | 2.53 µM | 7.72 µM | 3 µM | 19.9 µM | 2.55 µM | 7.66 µM | 3.19 µM | 9.21 µM | 2.61 µM | 7.87 µM | 3.04 µM | 12.1 µM | 0.344 µM | 2.92 µM | 0.303 µM | 9.59 µM | 0.296 µM | 3.18 µM | 3.54 µM | 9.33 µM
O=C1c2ccccc2-c2c1c1c(O)cccc1n2CCCc1ccccc1 | 12.6 µM | 27.8 µM | 87.7 µM | > 100 µM | 13 µM | > 100 µM | 9.82 µM | > 100 µM | 5.87 µM | 68.5 µM | 4.47 µM | 51.1 µM | 30.4 µM | > 100 µM | 22.7 µM | > 100 µM | 24.1 µM | > 100 µM | 10.1 µM | 56.7 µM
